Laboratory results as given in publication PMC9736855, “Discovery of 3-Amino-1H-pyrazole-Based Kinase Inhibitors to Illuminate the Understudied PCTAIRE Family” (International Journal of Molecular Sciences, 2022).

Columns and labels:
Test in all cases: DSF
Assay type in all cases: binding
STK3 = molecular target: T1, STK3 (Homo sapiens, UniProt Q13188)
T1 construct: purchased in-house DSF panel (SGC Frankfurt)
T1 sequence (Q13188 16-313): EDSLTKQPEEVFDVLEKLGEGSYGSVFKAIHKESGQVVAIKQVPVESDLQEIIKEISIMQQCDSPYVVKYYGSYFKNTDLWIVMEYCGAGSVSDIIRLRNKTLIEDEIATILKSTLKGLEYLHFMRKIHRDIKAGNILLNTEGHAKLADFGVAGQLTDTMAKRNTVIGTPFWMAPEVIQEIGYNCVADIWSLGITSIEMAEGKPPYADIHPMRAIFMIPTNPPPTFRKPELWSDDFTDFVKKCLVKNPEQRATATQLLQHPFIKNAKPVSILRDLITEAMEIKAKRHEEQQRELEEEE
Experimental: Recombinant protein kinase domains with a concentration of 2 μM were mixed with a 10 μM compound solution in DMSO, 20 mM HEPES, pH 7.5, and 500 mM NaCl. SYPRO Orange (5000×, Invitrogen) was added as a fluorescence probe (1 µl per mL). Subsequently, temperature-dependent protein unfolding profiles were measured, using the QuantStudio™ 5 realtime PCR machine (Thermo Fisher, Waltham, MA, USA). […] The temperature was raised with a step rate of 3 °C per minute. Data points were analyzed with the internal software (Thermal Shift SoftwareTM Version 1.4, Thermo Fisher) using the Boltzmann equation to determine the inflection point of the transition curve [56]. Differences in melting temperature are given as ΔTm values in °C. Measurements were performed in duplicates.

EPHB3 = molecular target: T2, EPHB3 (Homo sapiens, UniProt P54753)
T2 construct: purchased in-house DSF panel (SGC Frankfurt)
T2 sequence (P54753 616-910): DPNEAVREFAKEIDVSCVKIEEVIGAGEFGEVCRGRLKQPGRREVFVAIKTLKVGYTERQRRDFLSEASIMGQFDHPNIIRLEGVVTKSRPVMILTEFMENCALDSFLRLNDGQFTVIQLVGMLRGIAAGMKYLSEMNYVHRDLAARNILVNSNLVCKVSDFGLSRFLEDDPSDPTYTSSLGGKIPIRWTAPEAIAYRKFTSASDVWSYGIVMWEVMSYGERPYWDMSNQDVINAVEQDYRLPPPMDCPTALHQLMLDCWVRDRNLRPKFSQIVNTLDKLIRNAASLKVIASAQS
Experimental: (§1) Measurements were performed in duplicates.

CAMK4 = molecular target: T3, CAMK4 (Homo sapiens, UniProt Q16566)
T3 construct: purchased in-house DSF panel (SGC Frankfurt)
T3 sequence (Q16566 46-300): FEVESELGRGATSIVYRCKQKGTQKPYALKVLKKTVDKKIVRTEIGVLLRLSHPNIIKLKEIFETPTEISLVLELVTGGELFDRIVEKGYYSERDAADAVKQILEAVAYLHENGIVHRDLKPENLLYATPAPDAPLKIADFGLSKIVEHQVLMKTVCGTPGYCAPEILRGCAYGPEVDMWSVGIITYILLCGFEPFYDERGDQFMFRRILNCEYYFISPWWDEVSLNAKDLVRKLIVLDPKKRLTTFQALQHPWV
Experimental: as §1

EPHA7 = molecular target: T4, EPHA7 (Homo sapiens, UniProt Q15375)
T4 construct: purchased in-house DSF panel (SGC Frankfurt)
T4 sequence (Q15375 590-899): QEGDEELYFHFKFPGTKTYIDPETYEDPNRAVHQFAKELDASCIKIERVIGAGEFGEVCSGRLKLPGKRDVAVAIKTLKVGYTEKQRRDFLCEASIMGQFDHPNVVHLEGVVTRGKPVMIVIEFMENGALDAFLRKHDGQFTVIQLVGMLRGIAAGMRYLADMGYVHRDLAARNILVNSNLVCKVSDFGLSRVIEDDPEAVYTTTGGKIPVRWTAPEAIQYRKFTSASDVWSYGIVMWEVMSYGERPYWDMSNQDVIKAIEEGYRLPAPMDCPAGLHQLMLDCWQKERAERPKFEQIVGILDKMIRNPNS
Experimental: as §1

PLK4 = molecular target: T5, PLK4 (Homo sapiens, UniProt O00444)
T5 construct: purchased in-house DSF panel (SGC Frankfurt)
T5 sequence (O00444 2-275): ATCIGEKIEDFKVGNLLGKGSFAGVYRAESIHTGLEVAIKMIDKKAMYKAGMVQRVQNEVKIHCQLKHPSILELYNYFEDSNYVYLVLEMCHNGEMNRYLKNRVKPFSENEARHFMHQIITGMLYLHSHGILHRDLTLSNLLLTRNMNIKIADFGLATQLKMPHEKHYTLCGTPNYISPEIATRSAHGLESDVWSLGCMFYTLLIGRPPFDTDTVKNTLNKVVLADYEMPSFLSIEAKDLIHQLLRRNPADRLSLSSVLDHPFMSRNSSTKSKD
Experimental: as §1

STK10 = molecular target: T6, STK10 (Homo sapiens, UniProt O94804)
T6 construct: purchased in-house DSF panel (SGC Frankfurt)
T6 sequence (O94804 18-317): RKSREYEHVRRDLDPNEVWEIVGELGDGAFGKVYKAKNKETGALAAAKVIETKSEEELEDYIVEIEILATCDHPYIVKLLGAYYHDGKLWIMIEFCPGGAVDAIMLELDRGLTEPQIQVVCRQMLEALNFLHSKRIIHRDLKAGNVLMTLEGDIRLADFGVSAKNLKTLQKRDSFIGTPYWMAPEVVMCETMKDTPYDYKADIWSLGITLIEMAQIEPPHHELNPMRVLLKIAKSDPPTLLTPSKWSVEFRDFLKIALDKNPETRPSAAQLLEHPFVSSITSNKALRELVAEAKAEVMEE
Experimental: as §1

DCAMKL1 = molecular target: T7, DCAMKL1 (Homo sapiens, UniProt O15075)
T7 construct: purchased in-house DSF panel (SGC Frankfurt)
T7 sequence (O15075 390-647): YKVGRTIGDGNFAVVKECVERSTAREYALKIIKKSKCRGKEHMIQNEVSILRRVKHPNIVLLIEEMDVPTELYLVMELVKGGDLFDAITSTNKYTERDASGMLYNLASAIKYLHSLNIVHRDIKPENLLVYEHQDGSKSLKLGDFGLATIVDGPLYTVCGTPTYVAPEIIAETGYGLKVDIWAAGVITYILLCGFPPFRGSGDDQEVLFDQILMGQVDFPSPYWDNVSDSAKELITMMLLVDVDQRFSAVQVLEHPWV
Experimental: as §1

MAPK13 = molecular target: T8, MAPK13 (Homo sapiens, UniProt O15264)
T8 construct: purchased in-house DSF panel (SGC Frankfurt)
T8 sequence (O15264 1-365): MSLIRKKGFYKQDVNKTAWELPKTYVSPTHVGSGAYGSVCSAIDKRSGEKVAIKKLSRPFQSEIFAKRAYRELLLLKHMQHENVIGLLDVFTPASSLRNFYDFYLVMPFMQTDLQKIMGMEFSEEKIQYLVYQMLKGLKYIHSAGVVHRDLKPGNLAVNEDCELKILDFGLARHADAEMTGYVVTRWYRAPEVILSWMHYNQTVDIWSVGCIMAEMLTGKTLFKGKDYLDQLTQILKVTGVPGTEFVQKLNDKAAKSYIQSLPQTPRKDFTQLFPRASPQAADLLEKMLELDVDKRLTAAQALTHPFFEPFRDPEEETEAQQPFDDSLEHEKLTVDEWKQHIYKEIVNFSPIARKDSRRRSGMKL
Experimental: as §1

FLT1 = molecular target: T9, FLT1 (Homo sapiens, UniProt P17948)
T9 construct: purchased in-house DSF panel (SGC Frankfurt)
T9 sequence (P17948 801-1158): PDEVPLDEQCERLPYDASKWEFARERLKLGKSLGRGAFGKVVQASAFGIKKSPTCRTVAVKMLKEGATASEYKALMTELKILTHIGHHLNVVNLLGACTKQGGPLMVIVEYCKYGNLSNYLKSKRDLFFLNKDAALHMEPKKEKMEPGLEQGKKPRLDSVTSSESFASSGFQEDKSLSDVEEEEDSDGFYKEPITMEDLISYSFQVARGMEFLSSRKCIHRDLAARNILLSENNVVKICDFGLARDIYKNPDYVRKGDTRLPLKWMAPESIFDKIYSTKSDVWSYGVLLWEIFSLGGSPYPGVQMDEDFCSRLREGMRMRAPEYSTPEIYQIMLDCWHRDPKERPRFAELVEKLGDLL
Experimental: as §1

WNK1 = molecular target: T10, WNK1 (Homo sapiens, UniProt Q9H4A3)
T10 construct: purchased in-house DSF panel (SGC Frankfurt)
T10 sequence (Q9H4A3 206-483): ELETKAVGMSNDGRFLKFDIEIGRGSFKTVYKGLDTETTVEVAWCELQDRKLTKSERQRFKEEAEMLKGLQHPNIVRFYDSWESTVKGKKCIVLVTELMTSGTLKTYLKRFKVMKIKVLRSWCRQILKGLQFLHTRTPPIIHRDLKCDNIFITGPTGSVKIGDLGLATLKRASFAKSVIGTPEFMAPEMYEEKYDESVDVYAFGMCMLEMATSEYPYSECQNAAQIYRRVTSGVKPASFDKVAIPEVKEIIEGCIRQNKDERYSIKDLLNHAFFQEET
Experimental: as §1

BMP2K = molecular target: T11, BMP2K (Homo sapiens, UniProt Q9NSY1)
T11 construct: purchased in-house DSF panel (SGC Frankfurt)
T11 sequence (Q9NSY1 38-345): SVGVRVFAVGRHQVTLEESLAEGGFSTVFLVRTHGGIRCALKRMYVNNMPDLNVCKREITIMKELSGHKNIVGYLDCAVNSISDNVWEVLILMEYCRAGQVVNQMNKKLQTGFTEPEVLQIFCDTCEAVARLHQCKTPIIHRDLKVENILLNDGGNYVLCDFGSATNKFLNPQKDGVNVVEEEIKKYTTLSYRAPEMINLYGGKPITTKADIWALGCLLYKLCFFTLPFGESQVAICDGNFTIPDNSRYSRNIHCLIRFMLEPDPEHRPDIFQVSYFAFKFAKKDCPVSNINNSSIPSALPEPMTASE
Experimental: as §1

DAPK1 = molecular target: T12, DAPK1 (Homo sapiens, UniProt P53355)
T12 construct: purchased in-house DSF panel (SGC Frankfurt)
T12 sequence (P53355 1-285): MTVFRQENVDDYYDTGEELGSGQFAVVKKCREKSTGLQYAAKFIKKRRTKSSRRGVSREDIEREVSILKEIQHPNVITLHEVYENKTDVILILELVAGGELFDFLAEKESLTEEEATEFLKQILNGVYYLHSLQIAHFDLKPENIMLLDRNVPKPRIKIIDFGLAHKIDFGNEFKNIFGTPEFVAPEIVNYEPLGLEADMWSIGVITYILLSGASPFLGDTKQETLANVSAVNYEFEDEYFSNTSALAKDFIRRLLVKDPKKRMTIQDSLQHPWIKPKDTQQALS
Experimental: as §1

STK39 = molecular target: T13, STK39 (Homo sapiens, UniProt Q9UEW8)
T13 construct: purchased in-house DSF panel (SGC Frankfurt)
Experimental: as §1

Compound	ΔTm STK3 (STK3) [°C]	ΔTm EPHB3 (EPHB3) [°C]	ΔTm CAMK4 (CAMK4) [°C]	ΔTm EPHA7 (EPHA7) [°C]	ΔTm PLK4 (PLK4) [°C]	ΔTm STK10 (STK10) [°C]	ΔTm DCAMKL1 (DCAMKL1) [°C]	ΔTm MAPK13 (MAPK13) [°C]	ΔTm FLT1 (FLT1) [°C]	ΔTm WNK1 (WNK1) [°C]	ΔTm BMP2K (BMP2K) [°C]	ΔTm DAPK1 (DAPK1) [°C]	ΔTm STK39 (STK39) [°C]
N#CCc1ccc(Nc2nccc(Nc3cc(C4CC4)[nH]n3)n2)cc1 [compound 1, reference compound]	11.6	5.1	5.4	4.9	11.1	10.1	8.9	8.0	10.6	1.1	18.8	4.9	7.6
CC(C)(C)OC(=O)Nc1ccc(CNc2nccc(Nc3cc(C(=O)OC(C)(C)C)[nH]n3)n2)cc1 [43d, tert-butyl 3-((2-((4-((tert-butoxycarbonyl)amino)benzyl)amino)pyrimidin-4-yl)amino)-1H-pyrazole-5-carboxylate]	0.3	1.7	1.2	-3.4	5.5	-0.8	-2.1	1.3	0.9	-0.1	1.7	-0.4	-0.9
CC(C)OC(=O)c1cc(Nc2ccnc(NCc3ccc(NC(=O)OC(C)(C)C)cc3)n2)n[nH]1 [42d, isopropyl 3-((2-((4-((tert-butoxycarbonyl)amino)benzyl)amino)pyrimidin-4-yl)amino)-1H-pyrazole-5-carboxylate]	-1.0	1.3	0.4	-3.1	3.7	-0.7	-2.4	1.0	0.6	0.1	1.4	-0.3	-0.6
COC(=O)c1cc(Nc2ccnc(NCCOCCNC(=O)OC(C)(C)C)n2)[nH]n1 [21d, methyl 5-((2-((2-(2-((tert-butoxycarbonyl)amino)ethoxy)ethyl)amino)pyrimidin-4-yl)amino)-1H-pyrazole-3-carboxylate]	1.6	0.8	-0.2	1.3	3.0	-0.7	1.5	0.5	2.0	0.9	5.7	-2.4	1.8
CN[C@@H]1C[C@H]2O[C@@](C)([C@@H]1OC)n1c3ccccc3c3c4c(c5c6ccccc6n2c5c31)C(=O)NC4 [staurosporine, reference compound]	16.6	5.0	8.6	10.3	16.0	23.3	12.4	7.5	13.6	0.9	19.1	9.8	9.6
COC(=O)c1cc(Nc2ccnc(NCc3ccc(NC(=O)OC(C)(C)C)cc3)n2)[nH]n1 [21i, methyl 5-((2-((4-((tert-butoxycarbonyl)amino)benzyl)amino)pyrimidin-4-yl)amino)-1H-pyrazole-3-carboxylate]	1.2	0.4	-0.4	0.6	4.1	-0.7	-0.6	1.0	2.2	0.6	2.8	0.6	2.1
